Literature values in publication PMC7904743, “WIDOCK: a reactive docking protocol for virtual screening of covalent inhibitors” (Journal of Computer-Aided Molecular Design, 2021).
Where two headings read alike, the source gives them in different places.

How the values were obtained:
[1] = thiol reactivity, cited from earlier work
OTUB2 = conditions: experimental actives if % labeling higher than 50%, cited from earlier work
NUDT7 = conditions: protein labeling at 200 μM; experimental actives if % labeling higher than 50%; cited from earlier work
[2] = natural log of average rate constant k
[3] = natural logarithm of average rate constant
[4] = natural log of average kinetic rate constant
[5] = natural log of average rate constant

Row | SMILES | ln(avg k) [1, 2] | ln(avg k) [1, 3] | OTUB2 % labeling (OTUB2) | NUDT7 % labeling (NUDT7) | ln(avg k) [1, 4] | ln(avg k) [1, 5] | OTUB2 % labeling (OTUB2; OTUB2 protein labeling)
1 | O=C(CCl)Nc1ccccc1[N+](=O)[O-] [PCM-0102232, O=C(CCl)Nc1ccccc1[N+](=O)[O-]] | -15.562 | -15.562 | 20% | 24% | – | – | –
2 | Cc1ccc(-c2nnc(C)[nH]2)c(NC(=O)CCl)c1 [PCM-0102775, Cc1ccc(-c2nnc(C)[nH]2)c(NC(=O)CCl)c1] | – | – | – | 13% | -16.632 | -16.632 | 0%
3 | CC(=O)Nc1cccc(NC(=O)CCl)c1 [PCM-0102172, CC(=O)Nc1cccc(NC(=O)CCl)c1] | -15.748 | -15.748 | 0% | 0% | – | – | –
4 | CC(=O)c1sc(NC(=O)CCl)nc1C [PCM-0102838, CC(=O)c1sc(NC(=O)CCl)nc1C] | – | – | – | 12% | -16.064 | -16.064 | 0%
5 | O=C(CCl)N1CCCC1c1ccsc1 (stereo not drawn) [PCM-0102693, O=C(CCl)N1CCCC1c1ccsc1] | -15.634 | -15.634 | 0% | 20% | – | – | –
6 | CN(Cc1cc(Cl)cc(Cl)c1)C(=O)CCl [PCM-0102678, CN(Cc1cc(Cl)cc(Cl)c1)C(=O)CCl] | -15.789 | -15.789 | 0% | 45% | – | – | –
7 | Cc1ccc(NC(=O)CCl)cc1 [PCM-0102320, Cc1ccc(NC(=O)CCl)cc1] | -16.011 | -16.011 | 24% | 0% | – | – | –
8 | O=C(CCl)Nc1ccc(Cl)c([N+](=O)[O-])c1 [PCM-0102316, O=C(CCl)Nc1ccc(Cl)c([N+](=O)[O-])c1] | -15.463 | -15.463 | 36% | 28% | – | – | –
9 | CC(NC(=O)CCl)c1cccc2ccccc12 (stereo not drawn) [PCM-0102275, CC(NC(=O)CCl)c1cccc2ccccc12] | -16.435 | -16.435 | 73% | 32% | – | – | –
10 | CCOC(=O)C1CCCCN1C(=O)CCl (stereo not drawn) [PCM-0102937, CCOC(=O)C1CCCCN1C(=O)CCl] | – | – | – | 0% | -16.030 | -16.030 | 13%
11 | O=C(CCl)Nc1cccc(F)c1 [PCM-0102364, O=C(CCl)Nc1cccc(F)c1] | -15.960 | -15.960 | 0% | 9% | – | – | –
12 | O=C(CCl)N1CCN(c2ncc(Cl)cc2Cl)CC1 [PCM-0103022, O=C(CCl)N1CCN(c2ncc(Cl)cc2Cl)CC1] | – | – | – | 22% | -15.906 | -15.906 | 0%
13 | N#Cc1c(NC(=O)CCl)sc2c1CCCCC2 [PCM-0102286, N#Cc1c(NC(=O)CCl)sc2c1CCCCC2] | -16.020 | -16.020 | 0% | 33% | – | – | –
14 | O=C(CCl)N1CCN(Cc2ccc(Cl)cc2)CC1 [PCM-0102818, O=C(CCl)N1CCN(Cc2ccc(Cl)cc2)CC1] | – | – | – | 0% | -15.454 | -15.454 | 17%
15 | CC(C)(C)CCNC(=O)CCl [PCM-0102853, CC(C)(C)CCNC(=O)CCl] | – | – | – | 0% | -17.028 | -17.028 | 0%
16 | O=C(CCl)Nc1ccccc1N1CCCC1=O [PCM-0102375, O=C(CCl)Nc1ccccc1N1CCCC1=O] | -16.453 | -16.453 | 13% | 0% | – | – | –
17 | O=C(CCl)Nc1ccccc1I [PCM-0102509, O=C(CCl)Nc1ccccc1I] | -16.748 | -16.748 | 0% | 0% | – | – | –
18 | N#CC(c1cccs1)N1CCN(C(=O)CCl)CC1 (stereo not drawn) [PCM-0102223, N#CC(c1cccs1)N1CCN(C(=O)CCl)CC1] | -15.143 | -15.143 | 0% | 0% | – | – | –
19 | O=C(CCl)N1CC=C(c2ccccc2)CC1 [PCM-0103038, O=C(CCl)N1CC=C(c2ccccc2)CC1] | – | – | – | 0% | -16.846 | -16.846 | 9%
20 | O=C(CCl)N1CCSc2ccccc21 [PCM-0102415, O=C(CCl)N1CCSc2ccccc21] | -15.511 | -15.511 | 16% | 10% | – | – | –
21 | CCNC(=O)NC(=O)CCl [PCM-0102654, CCNC(=O)NC(=O)CCl] | -16.588 | -16.588 | 0% | 0% | – | – | –

Row | SMILES | ln(avg k) [1, 2] | ln(avg k) [1, 3] | OTUB2 % labeling (OTUB2) | NUDT7 % labeling (NUDT7) | ln(avg k) [1, 4] | ln(avg k) [1, 5] | OTUB2 % labeling (OTUB2; OTUB2 protein labeling)
22 | CC(NC(=O)CCl)c1ccc2ccccc2c1 (stereo not drawn) [PCM-0102350, CC(NC(=O)CCl)c1ccc2ccccc2c1] | -16.423 | -16.423 | 47% | 31% | – | – | –
23 | CC1CCCC(C)N1C(=O)CCl (stereo not drawn) [PCM-0102616, CC1CCCC(C)N1C(=O)CCl] | -15.945 | -15.945 | 0% | 0% | – | – | –
24 | O=C(CCl)NNC(=O)c1ccc(Cl)cc1 [PCM-0102953, O=C(CCl)NNC(=O)c1ccc(Cl)cc1] | – | – | – | 0% | -17.321 | -17.321 | 18%
25 | Cc1ccc([N+](=O)[O-])cc1NC(=O)CCl [PCM-0102098, Cc1ccc([N+](=O)[O-])cc1NC(=O)CCl] | -15.712 | -15.712 | 33% | 12% | – | – | –
26 | CC(C#N)(NC(=O)CCl)C1CC1 (stereo not drawn) [PCM-0102664, CC(C#N)(NC(=O)CCl)C1CC1] | -16.170 | -16.170 | 0% | 0% | – | – | –
27 | N#Cc1c(NC(=O)CCl)sc2c1CCCC2 [PCM-0102580, N#Cc1c(NC(=O)CCl)sc2c1CCCC2] | -16.105 | -16.105 | 10% | 72% | – | – | –
28 | O=C(CCl)N1CCC(c2nc3ccccc3o2)CC1 [PCM-0102920, O=C(CCl)N1CCC(c2nc3ccccc3o2)CC1] | – | – | – | 0% | -15.428 | -15.428 | 0%
29 | CNC(=O)CNC(=O)CCl [PCM-0102279, CNC(=O)CNC(=O)CCl] | -16.473 | -16.473 | 10% | 0% | – | – | –
30 | O=C(CCl)NCc1ccccc1 [PCM-0102538, O=C(CCl)NCc1ccccc1] | -16.796 | -16.796 | 28% | 0% | – | – | –
31 | CN(C(=O)CCl)C(C)(C)C#N [PCM-0102782, CN(C(=O)CCl)C(C)(C)C#N] | – | – | – | 0% | -16.514 | -16.514 | 0%
32 | N#Cc1cccc(CNC(=O)CCl)c1 [PCM-0102936, N#Cc1cccc(CNC(=O)CCl)c1] | – | – | – | 0% | -16.667 | -16.667 | 32%
33 | CN(Cc1nc2ccccc2s1)C(=O)CCl [PCM-0102988, CN(Cc1nc2ccccc2s1)C(=O)CCl] | – | – | – | 30% | -15.687 | -15.687 | 0%
34 | O=C(CCl)N1CCN(Cc2cccc(Cl)c2)CC1 [PCM-0102269, O=C(CCl)N1CCN(Cc2cccc(Cl)c2)CC1] | -15.481 | -15.481 | 19% | 0% | – | – | –
35 | O=C1CC(C(F)(F)F)N(C(=O)CCl)c2ccccc2N1 (stereo not drawn) [PCM-0102363, O=C1CC(C(F)(F)F)N(C(=O)CCl)c2ccccc2N1] | -15.654 | -15.654 | 0% | 28% | – | – | –
36 | O=C(CCl)N1CCN(S(=O)(=O)c2ccc(F)c(F)c2)CC1 [PCM-0102361, O=C(CCl)N1CCN(S(=O)(=O)c2ccc(F)c(F)c2)CC1] | -15.093 | -15.093 | 0% | 0% | – | – | –
37 | CC1CN(C(=O)CCl)CC(C)O1 (stereo not drawn) [PCM-0102796, CC1CN(C(=O)CCl)CC(C)O1] | – | – | – | 0% | -15.522 | -15.522 | 0%
38 | O=C(CCl)Nc1nc2ccc(Br)cc2s1 [PCM-0102126, O=C(CCl)Nc1nc2ccc(Br)cc2s1] | -16.235 | -16.235 | 12% | 100% | – | – | –
39 | O=C(CCl)N1CCN(S(=O)(=O)c2ccc3ccccc3c2)CC1 [PCM-0102836, O=C(CCl)N1CCN(S(=O)(=O)c2ccc3ccccc3c2)CC1] | – | – | – | 0% | -15.169 | -15.169 | 0%
40 | Cc1cccc(N(C(=O)CCl)C2C=CS(=O)(=O)C2)c1 (stereo not drawn) [PCM-0102579, Cc1cccc(N(C(=O)CCl)C2C=CS(=O)(=O)C2)c1] | -15.240 | -15.240 | 0% | 40% | – | – | –
41 | O=C(CCl)N1CCC(c2nc3ccccc3s2)CC1 [PCM-0103068, O=C(CCl)N1CCC(c2nc3ccccc3s2)CC1] | – | – | – | 65% | -15.772 | -15.772 | 0%
42 | O=C(CCl)N1CCCCC1 [PCM-0102514, O=C(CCl)N1CCCCC1] | -16.289 | -16.289 | 0% | 0% | – | – | –
